Measurements taken from patent US4255435A, “Triazole compounds” (priority 1980, dated 1981).

Tests used:
[1] = system: larvae of the diamond back moth (Plutella maculipennis); assay: Mortality of larvae of the diamond back moth on treated cabbage leaf; format: in vivo; conditions: Table 1; cabbage leaf dipped in test solution, mortality after 24 + 24 hours, two replicates; 2880 min
Experimental: (§1) Ten larvae were placed in a tube together with a square inch of cabbage leaf which had been dipped in the test solution and allowed to dry. After twenty-four hours untreated cabbage was added for food and after a further twenty-four hours an assessment was made of the mortality of the larvae.
Two replicates were carried out for each test compound and test solutions of varying concentrations employed so that an LD50 value could be calculated.

[2] = system: larvae of the cabbage white butterfly (Pieris brassicae); assay: Mortality of larvae of the cabbage white butterfly on treated cabbage leaf; format: in vivo; conditions: Table 3; cabbage leaf dipped in test solution, mortality after 24 + 24 hours, two replicates; 2880 min
Experimental: This example illustrates the activity of compounds of the invention against larvae of the cabbage white butterfly (Pieris brassicae).
as §1

[3] = system: eggs of the cabbage root fly (Erioischia brassicae); assay: Egg hatch of cabbage root fly eggs in test solution; format: in vivo; conditions: Table 4; eggs stored six days, egg hatch counted, two replicates; 8640 min
Text: This example illustrates the activity of compounds of the invention against the eggs of the cabbage root fly (Erioischia brassicae).
The eggs were then stored for six days and the egg hatch then counted.

[4] = system: larvae of the codling moth (Cydia pomonella); assay: Codling moth larvae on sprayed apple (number of strikes); format: in vivo; conditions: Table 5, after five days, two replicates, 7200 min
Text: This example illustrates the activity of compounds of the invention against the larvae of the codling moth (Cydia pomonella).
An apple sprayed with test solution was allowed to dry and a perspex ring of 1 inch diameter was attached to the apple. Ten larvae were then placed on the apple surface and contained within the ring by means of a muslin covering. After five days an assessment of mortality was made by counting the number of strikes (i.e. the number of entry holes) made by the larvae.

aphid Megoura viciae = assay: Aphids on sprayed broad bean plants; format: in vivo; conditions: Table 6; sprayed infested broad bean plants, 24 hours
Experimental: Broad bean plants 3 to 5 cm. high were infested with aphids and then sprayed with an aqueous dispersion containing varying concentrations of test compound. Each plant was kept under a lamp glass for 24 hours and then examined. In this way an LD50 value for the compounds was calculated.

[5] = system: nematode Meloidogyne incognita incognita; assay: Root knots of tomato plants in nematode-infested treated soil; format: in vivo; conditions: 100 parts per million per unit volume of soil, 30° C., ten days; untreated controls average more than 20 knots
Experimental: This example illustrates the activity of compounds of the invention against the nematode Meloidogyne incognita incognita.
Small tomato plants were transferred to containers with infested soil. Sufficient test compound to give a concentration of 100 parts per million per unit volume of soil was poured onto the soil and the containers suspended in warm water at 30° C.
After ten days the plants were knocked out of the containers and the roots washed clean, the number of knots being noted. The latter was an indication of activity and a low score indicated high activity.

insects = assay: Insecticidal activity; format: in vivo; conditions: in words
Mammalian toxicity = format: in vivo; conditions: in words
[6] = acute
[7] = acute; remark: listed apart in the source

For “1(2)-N,N-dimethylcarbamoyl-3-t-butyl-5-but-2-enylthio-1,2,4-triazole [methyl methyl t-butyl but-2-enyl]”, the “ACTIVITY LD50” value [1] was 220 p.p.m, the “ACTIVITY LD50” value [2] was 27 p.p.m and the “ACTIVITY LD50” value [3] was 1.2 p.p.m. The “ACTIVITY LD50” value [4] was 10 p.p.m, the “ACTIVITY LD50” value (aphid Megoura viciae) was 0.19 p.p.m and the “number of knots on roots” value [5] was at most 2 knots. The insecticidal activity (insects) was “high insecticidal activity”, the mammalian toxicity (Mammalian toxicity) was “low mammalian toxicity” and the “mammalian toxicity when presented as a powder formulation” value (Mammalian toxicity; (wettable) powder formulation, listed as first compound) was “sufficiently low”. For the same compound, the “mammalian toxicity when presented as a powder formulation” value (Mammalian toxicity; wettable powder formulation) was “sufficiently low mammalian toxicity”, the “Oral toxicity (rat) LD50” value [6] was 40 to 80 mg/kg and the “Dermal toxicity (rat) LD50” value (acute, dermal, rat) was 40 mg/kg. For the same compound, the “effect of wettable powder formulation on dermal toxicity” value (in words, wettable powder formulation) was “reduces the dermal toxicity” and the “Oral toxicity (mouse) LD50” value [7] was 80 to 160 mg/kg.

With `C#CCSc1nc(C(C)(C)C)nn1C(=O)N(C)C` [methyl methyl t-butyl prop-2-ynyl, 1(2)-N,N-dimethylcarbamoyl-3-t-butyl-5-prop-2-ynylthio-1,2,4-triazole] the “ACTIVITY LD50” value [1] was 33 p.p.m, the “ACTIVITY LD50” value [2] was 27 p.p.m and the “ACTIVITY LD50” value [3] was 0.8 p.p.m. For the same compound, the “ACTIVITY LD50” value (aphid Megoura viciae) was 1.1 p.p.m and the “number of knots on roots” value [5] was at most 2 knots.

With “1(2)-N,N-dimethylcarbamoyl-3-isopropyl-5-methylthio-1,2,4-triazole [methyl methyl isopropyl methyl]” the “ACTIVITY LD50” value [1] was 160 p.p.m, the “ACTIVITY LD50” value [2] was 59 p.p.m and the “ACTIVITY LD50” value [4] was 37 p.p.m. For the same compound, the “ACTIVITY LD50” value (aphid Megoura viciae) was 1.1 p.p.m.

In the case of `CSc1nc(C(C)(C)C)nn1C(=O)N(C)C` [methyl methyl t-butyl methyl, 1-N,N-dimethylcarbamoyl-3-t-butyl-5-methylthio-1,2,4-triazole], the “number of knots on roots” value [5] is reported as at most 2 knots, the insecticidal activity (insects) is reported as “insecticidally active” and the mammalian toxicity (Mammalian toxicity) is reported as “too high to permit the more widespread use”.
